Entries after “also recorded” stand apart in the source; their conditions may differ. Like-named read-outs stand apart in the source and are kept apart here.
Legend:
[1] = molecular target: T1, butyrylcholinesterase (BChE, EC 3.1.1.8, from equine serum) (Equus caballus, UniProt P81908); test: biochemical; assay type: biochemical
T1 construct: butyrylcholinesterase (BChE, EC 3.1.1.8, from equine serum); purchased Sigma-Aldrich (Germany); host or cells: equine serum
Method: (§1) Acetylcholinesterase (AChE, EC 3.1.1.7, from human erythrocyte), butyrylcholinesterase (BChE, EC 3.1.1.8, from equine serum), carboxylesterase (CaE, EC 3.1.1.1, from porcine liver), acetylthiocholine iodide (ATCh), butylthiocholine iodide (BTCh), 5,5´-dithiobis-(2-nitrobenzoic acid) (DTNB), 4-nitrophenyl acetate (4-NPA), were purchased from Sigma-Aldrich (Germany).
(§2) AChE and BChE activities were measured by the method of Ellman and coworkers as described earlier. The assay solution consisted of 0.1 M K/Na phosphate buffer pH 7.5, 25 °C with the addition of 0.33 mM DTNB, 0.02 unit/mL of AChE or BChE and 1 mM of substrate (ATCh or BTCh, respectively). Assays were carried out with a blank containing all components except ATCh and BTCh in order to account for non-enzymatic reaction.
(§3) The tested compounds were dissolved in DMSO; the incubation mixture contained 2% of the solvent. […] The test compounds were added to the assay solution and preincubated at 25 °C with the enzymes for 10 min followed by the addition of substrate. A parallel control was made for the assay solution with no inhibitor. Measurements were performed in a BioRad Benchmark Plus microplate spectrophotometer (France). Each experiment was performed in triplicate. The results were expressed as the mean ± SEM. The reaction rates in the presence and absence of inhibitor were compared, and the percent of residual enzyme activity due to the presence of test compounds was calculated.

[2] = molecular target: T2, ifenprodil binding site of NMDA receptor (NR2B subunit containing) (Rattus norvegicus, UniProt P35439+Q00960); test: Radioligand binding, [3H]ifenprodil site of NMDA receptor, hippocampal membranes; settings: for % of [3H]ifenprodil blockade at 100 μM of compound: 100 μM compound
T2 construct: A membrane preparation of hippocampus for radioligand analysis was prepared; from tissue; host or cells: rat hippocampal membranes
Method: (§4) Effect of test compounds on the radioligand binding to NMDA receptors was determined by using a modified method as reported earlier by Zhou L-M and coworkers. Two radioactive ligands were used: [^3H] MK-801 (dizocilpine) with a specific activity of 210 Ci/mmol binding to all isolated NMDA receptors, and [^3H] ifenprodil with a specific activity of 79 Ci/mmol binding only to NMDA receptors containing the NR2B subunit.
(§5) A membrane preparation of hippocampus for radioligand analysis was prepared by the techniques described previously. The obtained membrane pellet was resuspended in a work buffer (5 mM HEPES/4.5 mM Tris buffer, pH 7.6) in a ratio of 1:5, and stored in liquid nitrogen. The reaction mixture (the final volume of 0.5 ml) contained 200 μl of the working buffer, 50 μl of 50 nM radioligand solution and 250 μl of the membrane suspension. Nonspecific binding was determined in the presence of 50 μl of […] of unlabeled ligand.
(§6) For binding study, the reaction mixture was incubated at room temperature for 2 hours. After incubation, the samples were filtered through the glass-fiber filters GF/B (Whatman), washed with the work buffer, dried and transferred to scintillation vials to which 5 ml of scintillation fluid was added containing 4g diphenyl oxazole (PPO), 0.2g diphenyloxazoil benzene (POPOP) and 1 liter of toluene. Radioactivity was determined in the scintillation counter TriCarb2800 TR (PerkinElmer, Packard, USA) with counting efficiency of about 65%.
(§7) Investigation of the effect of the tested compounds on the binding of [^3H]

[3] = molecular target: T3, carboxylesterase (CaE, EC 3.1.1.1, from porcine liver) (Sus scrofa, UniProt Q29550); test: In vitro CaE inhibition (4-nitrophenyl acetate hydrolysis); assay type: biochemical; settings: pH 8.0, 25 °C, 10 min preincubation, read-out: IC50 (μM) ± SEM CaE
T3 sequence (Q29550 19-566): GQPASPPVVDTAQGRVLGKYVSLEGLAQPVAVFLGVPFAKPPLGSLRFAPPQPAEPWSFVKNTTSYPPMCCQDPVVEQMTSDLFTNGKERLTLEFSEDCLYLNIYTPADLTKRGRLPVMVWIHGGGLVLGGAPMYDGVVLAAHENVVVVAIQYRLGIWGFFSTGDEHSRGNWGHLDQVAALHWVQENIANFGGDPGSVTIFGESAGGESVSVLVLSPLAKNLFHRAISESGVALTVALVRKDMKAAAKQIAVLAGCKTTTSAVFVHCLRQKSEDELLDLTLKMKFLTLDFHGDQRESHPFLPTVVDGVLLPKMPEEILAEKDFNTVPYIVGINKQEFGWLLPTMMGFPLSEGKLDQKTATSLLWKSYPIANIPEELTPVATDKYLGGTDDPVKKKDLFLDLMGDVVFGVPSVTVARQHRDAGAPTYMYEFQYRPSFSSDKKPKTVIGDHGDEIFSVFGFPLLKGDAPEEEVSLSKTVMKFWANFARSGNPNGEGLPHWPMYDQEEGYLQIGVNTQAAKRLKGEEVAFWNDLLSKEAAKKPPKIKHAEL
Method: as §1
The activity of CaE was determined spectrophotometrically by the release of 4-nitrophenol at 405 nm[51]. The assay solution consisted of 0.1 M K/Na phosphate buffer pH 8.0, 25 °C with the addition of 1 mM 4-nitrophenyl acetate and 0.02 unit/mL of CaE. Assays were carried out with a blank containing all components except CaE.
as §3

[4] = molecular target: T4, МК-801 binding site of NMDA receptor (Rattus norvegicus, UniProt P35439); test: Radioligand binding, [3H]MK-801 site of NMDA receptor, hippocampal membranes; settings: for % of [3H]МК-801 blockade at 100 μM of compound: 100 μM compound
T4 construct: A membrane preparation of hippocampus for radioligand analysis was prepared; from tissue; host or cells: rat hippocampal membranes
Method: as §4, §5, §6, §7

[5] = molecular target: T1, butyrylcholinesterase (BChE, EC 3.1.1.8, from equine serum); test: biochemical; assay type: biochemical; settings: for αKi (non-competitive inhibition constant) / Ki: BChE, means ± SEM, at least three experiments; for Ki: read-out: Ki (competitive inhibition constant); for type of BChE inhibition: Lineweaver-Burk analysis
Method: The test compounds were preincubated with the enzymes at 25 °C for 10 min, followed by the addition of the substrates. Parallel controls were made for an assay of the rate of hydrolysis of the same concentrations of substrates in the solutions with no inhibitor. The kinetic parameters of substrate hydrolysis were determined. Measurements were performed in a BioRad Benchmark Plus microplate spectrophotometer (France). Each experiment was performed in triplicate.

[6] = molecular target: T5, Acetylcholinesterase (AChE, EC 3.1.1.7, from human erythrocyte) (Homo sapiens, UniProt P22303); test: biochemical; assay type: biochemical
T5 construct: Acetylcholinesterase (AChE, EC 3.1.1.7, from human erythrocyte); purchased Sigma-Aldrich (Germany); host or cells: human erythrocytes
Method: as §1, §2, §3

[7] = equine serum BChE, pH 7.5, 25 °C, 10 min preincubation, read-out: IC50 (μM) ± SEM BChE
[8] = rat hippocampal membranes, read-out: [3H]ifenprodil, IC50
[9] = rat hippocampal membranes, read-out: [3H]МК-801, IC50
[10] = human erythrocyte AChE, pH 7.5, 25 °C, 10 min preincubation, read-out: IC50 (μM) ± SEM AChE

T1 sequence (P81908 whole entry): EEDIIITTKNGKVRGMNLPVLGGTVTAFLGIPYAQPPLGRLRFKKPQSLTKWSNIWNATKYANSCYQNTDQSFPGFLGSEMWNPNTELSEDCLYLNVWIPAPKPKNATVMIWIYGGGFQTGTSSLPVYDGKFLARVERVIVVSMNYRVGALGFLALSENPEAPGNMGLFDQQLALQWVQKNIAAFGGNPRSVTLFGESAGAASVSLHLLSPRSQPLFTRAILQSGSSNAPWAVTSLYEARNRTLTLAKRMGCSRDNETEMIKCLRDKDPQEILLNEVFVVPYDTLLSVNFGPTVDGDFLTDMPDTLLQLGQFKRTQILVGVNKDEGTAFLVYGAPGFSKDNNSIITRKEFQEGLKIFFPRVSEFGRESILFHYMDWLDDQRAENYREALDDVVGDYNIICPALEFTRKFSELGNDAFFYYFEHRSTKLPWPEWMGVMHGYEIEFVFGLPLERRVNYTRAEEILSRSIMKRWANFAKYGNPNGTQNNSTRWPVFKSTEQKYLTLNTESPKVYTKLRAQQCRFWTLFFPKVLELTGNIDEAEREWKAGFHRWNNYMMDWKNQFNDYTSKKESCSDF
T5 sequence (P22303 other isoform, or with tags, fused parts or gaps): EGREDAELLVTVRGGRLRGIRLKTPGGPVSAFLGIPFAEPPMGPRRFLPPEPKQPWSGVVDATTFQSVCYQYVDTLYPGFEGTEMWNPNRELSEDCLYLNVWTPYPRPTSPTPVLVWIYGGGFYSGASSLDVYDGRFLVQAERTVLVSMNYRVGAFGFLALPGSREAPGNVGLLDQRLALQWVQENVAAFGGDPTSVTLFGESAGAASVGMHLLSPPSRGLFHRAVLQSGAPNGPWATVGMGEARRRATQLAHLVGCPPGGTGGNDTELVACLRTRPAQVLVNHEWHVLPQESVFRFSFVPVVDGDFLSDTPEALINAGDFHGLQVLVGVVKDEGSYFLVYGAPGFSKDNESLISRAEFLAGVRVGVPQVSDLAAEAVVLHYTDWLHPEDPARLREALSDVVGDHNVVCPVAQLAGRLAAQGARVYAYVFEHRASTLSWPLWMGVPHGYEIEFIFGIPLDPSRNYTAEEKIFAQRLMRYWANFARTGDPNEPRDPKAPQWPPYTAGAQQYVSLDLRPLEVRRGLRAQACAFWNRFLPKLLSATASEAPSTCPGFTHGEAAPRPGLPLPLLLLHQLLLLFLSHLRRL
T2 sequence (Q00960 27-1482, other chains not shown): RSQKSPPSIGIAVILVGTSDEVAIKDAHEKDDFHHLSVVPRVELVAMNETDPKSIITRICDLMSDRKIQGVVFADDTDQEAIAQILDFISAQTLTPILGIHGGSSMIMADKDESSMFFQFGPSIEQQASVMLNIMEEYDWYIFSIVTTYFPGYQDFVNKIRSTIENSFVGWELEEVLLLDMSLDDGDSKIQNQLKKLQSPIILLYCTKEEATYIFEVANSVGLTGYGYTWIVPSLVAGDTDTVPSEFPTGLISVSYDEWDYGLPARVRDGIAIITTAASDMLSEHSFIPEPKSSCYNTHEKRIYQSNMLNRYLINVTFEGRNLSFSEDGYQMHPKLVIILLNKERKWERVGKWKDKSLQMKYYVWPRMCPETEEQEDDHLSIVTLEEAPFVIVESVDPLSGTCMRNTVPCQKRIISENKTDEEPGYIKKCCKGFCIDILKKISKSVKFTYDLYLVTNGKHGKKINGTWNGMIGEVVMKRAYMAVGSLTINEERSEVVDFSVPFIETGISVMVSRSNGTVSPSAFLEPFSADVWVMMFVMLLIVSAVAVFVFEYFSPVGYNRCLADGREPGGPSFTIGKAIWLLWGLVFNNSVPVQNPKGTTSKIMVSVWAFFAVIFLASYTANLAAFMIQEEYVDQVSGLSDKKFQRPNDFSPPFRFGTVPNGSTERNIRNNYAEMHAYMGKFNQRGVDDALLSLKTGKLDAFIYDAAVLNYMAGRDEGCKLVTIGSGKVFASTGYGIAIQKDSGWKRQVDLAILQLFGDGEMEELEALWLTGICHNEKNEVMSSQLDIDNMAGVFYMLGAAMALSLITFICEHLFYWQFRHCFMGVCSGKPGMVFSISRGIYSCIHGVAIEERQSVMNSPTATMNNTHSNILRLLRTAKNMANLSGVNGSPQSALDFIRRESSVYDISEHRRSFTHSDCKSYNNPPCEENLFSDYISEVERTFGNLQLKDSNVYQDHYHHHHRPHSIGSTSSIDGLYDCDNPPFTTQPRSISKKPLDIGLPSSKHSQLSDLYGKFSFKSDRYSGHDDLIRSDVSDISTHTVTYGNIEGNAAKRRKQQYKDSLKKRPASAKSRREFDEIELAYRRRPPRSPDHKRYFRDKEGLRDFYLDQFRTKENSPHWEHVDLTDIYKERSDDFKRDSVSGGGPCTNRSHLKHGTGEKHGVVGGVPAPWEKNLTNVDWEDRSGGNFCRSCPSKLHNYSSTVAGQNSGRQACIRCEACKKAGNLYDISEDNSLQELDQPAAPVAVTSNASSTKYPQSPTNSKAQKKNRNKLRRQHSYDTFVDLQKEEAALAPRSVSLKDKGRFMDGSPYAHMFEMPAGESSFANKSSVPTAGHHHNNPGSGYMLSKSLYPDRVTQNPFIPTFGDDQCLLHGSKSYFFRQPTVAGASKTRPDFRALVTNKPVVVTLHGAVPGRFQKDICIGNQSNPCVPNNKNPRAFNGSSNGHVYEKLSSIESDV

SMILES	IC50 [1, 7] [µM]	% of [3H]ifenprodil blockade at 100 μM of compound ([2]; rat hippocampal membranes) [%]	IC50 [2, 8] [µM]	IC50 [3] [µM]	IC50 [4, 9] [µM]	αKi (non-competitive inhibition constant) [5] [µM]	Ki [5] [µM]	type of BChE inhibition [5]	% of [3H]МК-801 blockade at 100 μM of compound ([4]; rat hippocampal membranes) [%]	IC50 [6, 10] [µM]	times higher BChE inhibitory activity versus (C-2b) ([1]; comparison of IC50 values, 1-oxopropylene vs 2-hydroxypropylene spacer, same R1, R2) [times]	IC50 [2] [µM]	IC50 [4] [µM]	IC50 ([2]; read-out: [3H]ifenprodil, IC50, rat hippocampal membranes) [µM]	IC50 ([4]; read-out: [3H]МК-801, IC50, rat hippocampal membranes) [µM]	IC50 [1] [µM]	IC50 [6] [µM]
Cc1ccc2c(c1)c1c(n2CC(O)CN2c3ccccc3Sc3ccccc32)CCN(C)C1 (racemic) [C-2a]	11.7 ± 0.4	69.7 ± 8.3	57.2 ± 6.7	> 200	84.8 ± 9.2												
CCN1CCc2c(c3cc(F)ccc3n2CC(O)CN2c3ccccc3Sc3ccccc32)C1 (racemic) [C-2b]	2.01 ± 0.04	25.7 ± 4.6	81.2 ± 6.7	> 200	106 ± 9.2	2.98 ± 0.19	0.82 ± 0.02	mixed-type inhibition; also recorded: mixed-type reversible inhibitors	24.1 ± 1.9								
O=[N+]([O-])c1ccc(OP(=O)(O)Oc2ccc([N+](=O)[O-])cc2)cc1 [BNPP, Bis-4-nitrophenyl phosphate, reference compound]				1.8 ± 0.11													
Cc1ccc2c(c1)c1c(n2CCC(=O)N2c3ccccc3Sc3ccccc32)CCN(C)C1 [C-1a]	62.6 ± 4.3	42.6 ± 7.2	88.4 ± 8.3	> 200	13.5 ± 3.6				80.4 ± 6.6	> 200							
CCN1CCc2c(c3cc(C)ccc3n2CCC(=O)N2c3ccccc3Sc3ccccc32)C1 [C-1b]	2.04 ± 0.55	48.1 ± 5.9	74.4 ± 4	> 200	8.5 ± 0.8	1.46 ± 0.40	0.43 ± 0.05		95.7 ± 1.0	> 200							
CN1CCc2c(c3cc(F)ccc3n2CCC(=O)N2c3ccccc3Sc3ccccc32)C1 [C-1c]	1.79 ± 0.28	50.2 ± 5.2	55.1 ± 5.8	> 200	17.7 ± 2.6	1.27 ± 0.41	0.48 ± 0.06		78.7 ± 1.4	> 200							
CN1CCc2c(c3ccccc3n2CCC(=O)N2c3ccccc3Sc3ccccc32)C1 [C-1d]	1.07 ± 0.12	60.1 ± 1.4	23.4 ± 0.7	> 200	18.5 ± 0.9	1.64 ± 0.20	0.37 ± 0.01		74.9 ± 1.1	> 200							
CCN1CCc2c(c3ccccc3n2CCC(=O)N2c3ccccc3Sc3ccccc32)C1 [C-1e]	0.52 ± 0.01	69.4 ± 3.3	13.4 ± 2.6	> 200	14.6 ± 1.9	0.65 ± 0.07	0.26 ± 0.02		76.1 ± 1.2	> 200							
CCN1CCc2c(c3cc(F)ccc3n2CCC(=O)N2c3ccccc3Sc3ccccc32)C1 [C-1f]	0.58 ± 0.06	78.2 ± 6.8				0.52 ± 0.04	0.17 ± 0.02	mixed-type inhibition; also recorded: mixed-type reversible inhibitors	82.4 ± 7.3	> 200	3.5	8.8 ± 1.8	15.8 ± 1.8				
CCc1ccc2c(c1)c1c(n2CCC(=O)N2c3ccccc3Sc3ccccc32)CCN(C)C1 [C-1g]	1.36 ± 0.06	64.6 ± 5.2	15.4 ± 3.9	> 200	13.2 ± 2.2	0.99 ± 0.04	0.46 ± 0.02		89.4 ± 4.6	> 100							
CC(C)c1ccc2c(c1)c1c(n2CCC(=O)N2c3ccccc3Sc3ccccc32)CCN(C)C1 [C-1h]	2.79 ± 0.09		85.8 ± 7.2	120 ± 13	17.8 ± 2	1.94 ± 0.01		non-competitive mechanism	80.3 ± 6.9	> 100							
COc1ccc2c(c1)c1c(n2C[C@@H](O)CN2c3ccccc3Sc3ccccc32)CCN(C)C1 [C-2c]	0.39 ± 0.02	47.4 ± 6.6				0.89 ± 0.18	0.25 ± 0.04		19.1 ± 2.2					115 ± 9.3	113 ± 11.1		
CN(C)c1ccc2nc3ccc(=[N+](C)C)cc-3sc2c1 [MB, methylene blue, reference compound]						0.64 ± 0.02			2.0 ± 4.0								
Cc1ccc2c(c1)c1c(n2CCc2ccc(C)nc2)CCN(C)C1 [dimebon, reference compound]		34.1 ± 4.9	82.4 ± 4.1		91.5 ± 7.7				27.8 ± 3.9							5.76 ± 0.51	36.3 ± 5.8
c1ccc2c(c1)Nc1ccccc1S2 [phenothiazine]																137 ± 31	

Source: publication PMC4642525, “Conjugates of γ-Carbolines and Phenothiazine as new selective inhibitors of butyrylcholinesterase and blockers of NMDA receptors for Alzheimer Disease” (Scientific Reports, 2015)
